How the values were obtained:
[1] = molecular target: T1, cloned human P2Y1 receptors (Homo sapiens (Human), UniProt P47900); assay: Binding Assay A - membrane binding assay, [33P] 2MeS-ADP (WGA FlashPlate); details: values marked * in Table 1; 0.5 nM [33P] 2MeS-ADP, Cheng-Prusoff; read-out: P2Y1 Ki (nM) using binding assay A
Text: A membrane binding assay was used to identify inhibitors of [^33P] […] The cDNA clone for human P2Y1 was obtained from Incyte Pharmaceuticals and its sequence confirmed by established techniques (for a compendium of techniques used see Ausubel, F. et al., Current Protocols in Molecular Biology, John Wiley and Sons, NY, NY (1995)). The essential coding sequences were subcloned into pCDNA 3.1 (Invitrogen) to produce a P2Y1 expression construct. This construct was then transfected into the human embryonic kidney cell line HEK-293 and stable transfectants selected in GENETICIN® (G418 sulfate; Life Technologies). […] Membranes were prepared by growing HEK293 #49 in 150 mm dishes in DMEM/10% FBS in the presence of 1 mg/ml G418 until cells were 80-90% confluent. Plates were then washed with cold (4° C.) D-PBS twice and cells harvested by scraping into 10 mL D-PBS. Cells were pelleted by centrifugation (1,000 g, 10 min, 4° C.) and the resulting pellet resuspended in Lysis Buffer (10 mM Tris (7.4), 5 mM MgCl2 containing Complete protease inhibitor cocktail (Roche Cat #1873580) as recommended by the manufacturer). The suspension was then homogenized in a Dounce homogenizer (10-15 strokes; B pestle, on ice) and the homogenate spun at 1,000 g, 4° C., 5 min to pellet large debris. The supernatant was centrifuged at 150,000 g, 4° C., for 1 hour and the resulting membrane pellet resuspended in 0.5-1 mL of Buffer B (15 mM HEPES (7.4), 145 mM NaCl, 0.1 mM MgCl2, 5 mM EDTA, 5 mM KCl) and stored at −70° C. until used.
Binding reactions were performed in WGA FLASHPLATE®s (PerkinElmer Life Sciences, Cat # SMP105A) in a volume of 200 μL containing ˜45 fmol of P2Y1 receptor (5 μg of total protein), 0.5 nM [^33P] […] Reactions were allowed to proceed to completion at room temperature for 1 hour and then the aqueous solution aspirated. Plates were sealed and the residual [^33P] bound to the plate determined by scintillation counting.

[2] = tested on: human platelet rich plasma (PRP); assay: ADP induced platelet aggregation assay; details: Homo sapiens, Platelet, 5 min, read-out: PA IC50 (μM) @ 10 μM ADP, human PRP, 10 μM ADP, AUC at 5 minute
Method: The ability of P2Y1 antagonists covered in the present invention to inhibit platelet aggregation induced by 10 μM ADP was tested using human platelet rich plasma (PRP) as described in Platelet Protocols: Research and Clinical Laboratory Procedures (White, M. M. et al., Academic Press (1999)). Human blood was collected in 30 μM (final concentration in blood) argatroban (GSK) as the anticoagulant at a ratio of 1 mL per 9 mL of blood. The PRP was isolated by centrifugation at 170 g for 12 minutes. The platelet poor plasma (PPP) was used as the blank for optical aggregometry. Compounds of the present invention in DMSO solution was preincubated with 250 μL PRP at 37° C. for 1 minute with stirring speed of 1000 rpm. Aggregation was initiated by addition of 2.5 μL of 1 mM ADP (Chrono-log, Havertown, Pa.) for a final ADP concentration of 10 μM. Platelet aggregation was monitored using Optical Aggregometer (Chrono-log, Havertown, Pa.) and the area under the curve (AUC) at 5 minute was measured. IC50 was calculated using vehicle control as 0% inhibition.

[3] = molecular target: T1, cloned human P2Y1 receptors; assay: Binding Assay B - Scintillation Proximity Assay (SPA) for P2Y1 binding, [33P] 2MeS-ADP; details: read-out: P2Y1 Ki (nM) using binding assay B
Method: Binding Assay B—Scintillation Proximity Assay (SPA) for P2Y1 Binding
A SPA membrane binding assay was used to identify inhibitors of [^33P] […] Reactions were allowed to proceed to completion at room temperature for 1 hour followed by centrifugation of the plate for 5 min. About 40 μL of the aqueous solution was aspirated. Plates were sealed and the [^33P]

[4] = SPA, 0.3 nM [33P] 2MeS-ADP, Cheng-Prusoff

T1 sequence (P47900 whole entry): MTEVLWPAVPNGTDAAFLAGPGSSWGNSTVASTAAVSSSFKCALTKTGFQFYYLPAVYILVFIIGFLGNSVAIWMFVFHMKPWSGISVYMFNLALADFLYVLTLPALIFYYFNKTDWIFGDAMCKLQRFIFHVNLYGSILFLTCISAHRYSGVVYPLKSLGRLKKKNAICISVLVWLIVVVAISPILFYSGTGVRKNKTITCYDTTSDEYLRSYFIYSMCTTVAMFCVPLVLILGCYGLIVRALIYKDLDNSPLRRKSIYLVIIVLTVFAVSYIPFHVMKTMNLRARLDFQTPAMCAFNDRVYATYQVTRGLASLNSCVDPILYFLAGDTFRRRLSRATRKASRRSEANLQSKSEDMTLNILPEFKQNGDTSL

| Structure (SMILES) | Ki [1] [nM] | IC50 [2] [µM] | Ki [3, 4] [nM] | Ki [3] [nM] |
| --- | --- | --- | --- | --- |
| CCC1(CC)CN(c2ccccc2NC(=O)Nc2ccc(C3CCCN3CC(C)C)cc2)c2c1ccc(F)c2O (stereo not drawn) [Example 36, 1-(2-(3,3-Diethyl-6-fluoro-7-hydroxyindolin-1-yl)phenyl)-3-(4-(1-isobutylpyrrolidin-2-yl)phenyl)urea] | 5.7 | 0.21 |  |  |
| CCC1(CC)CN(c2ccccc2NC(=O)Nc2nc(C(C)C)ns2)c2c(O)ccc(Cl)c21 [Example 48, 1-(2-(4-Chloro-3,3-diethyl-7-hydroxyindolin-1-yl)phenyl)-3-(3-isopropyl-1,2,4-thiadiazol-5-yl)urea] | 7 | 0.48 |  |  |
| CCC1(CC)CN(c2ccccc2NC(=O)Nc2nc3ccc(F)cc3s2)c2c(O)ccc(Cl)c21 [Example 49, 1-(2-(4-Chloro-3,3-diethyl-7-hydroxyindolin-1-yl)phenyl)-3-(6-fluorobenzo[d]thiazol-2-yl)urea] | 6.6 | 0.18 |  |  |
| CC1(C)CN(c2ccccc2NC(=O)Nc2ccc(OC(F)(F)F)cc2)c2c(O)ccc(-c3ccc(F)cn3)c21 [Example 123, 1-(2-(4-(5-Fluoropyridin-2-yl)-7-hydroxy-3,3-dimethylindolin-1-yl)phenyl)-3-(4-(trifluoromethoxy)phenyl)urea] | 4.5 | 0.43 |  |  |
| CC1(C)CN(c2ccccc2NC(=O)Nc2ccc(OC(F)(F)F)cc2)c2c(O)cc(F)c(-c3ccno3)c21 [Example 261, 1-(2-(5-Fluoro-7-hydroxy-4-(isoxazol-5-yl)-3,3-dimethylindolin-1-yl)phenyl)-3-(4-(trifluoromethoxy)phenyl)urea] |  | 1.99 | 5.5 |  |
| CC1(C)CN(c2ccccc2NC(=O)Nc2ccc(OC(F)(F)F)cc2)c2c(O)cc(F)c(-c3cc(C(F)(F)F)no3)c21 [Example 262, 1-(2-(5-Fluoro-7-hydroxy-3,3-dimethyl-4-(3-(trifluoromethyl)isoxazol-5-yl)indolin-1-yl)phenyl)-3-(4-(trifluoromethoxy)phenyl)urea] |  | 0.92 | 12.9 |  |
| CC1(C)CN(c2ccccc2NC(=O)Nc2nc3ccc(Cl)nc3s2)c2c(O)cc(F)c(-c3cc(C(F)(F)F)no3)c21 [Example 263, 1-(5-Chlorothiazolo[5,4-b]pyridin-2-yl)-3-(2-(5-fluoro-7-hydroxy-3,3-dimethyl-4-(3-(trifluoromethyl)isoxazol-5-yl)indolin-1-yl)phenyl)urea] |  | 0.84 | 20.5 |  |
| CC1(C)CN(c2ccccc2NC(=O)Nc2nc3ccc(F)cc3s2)c2c(O)cc(F)c(-c3cc(C(F)(F)F)no3)c21 [Example 264, 1-(2-(5-Fluoro-7-hydroxy-3,3-dimethyl-4-(3-(trifluoromethyl)isoxazol-5-yl)indolin-1-yl)phenyl)-3-(6-fluorobenzo[d]thiazol-2-yl)urea] |  | 0.62 |  | 18.2 |
| CC1(C)CN(c2ccccc2NC(=O)Nc2nc3ccc(Cl)cc3s2)c2c(O)cc(F)c(-c3cc(C(F)(F)F)no3)c21 [Example 265, 1-(6-Chlorobenzo[d]thiazol-2-yl)-3-(2-(5-fluoro-7-hydroxy-3,3-dimethyl-4-(3-(trifluoromethyl)isoxazol-5-yl)indolin-1-yl)phenyl)urea] |  | 0.4 | 49.9 |  |
| CC(C)n1nc(-c2c(F)cc(O)c3c2C(C)(C)CN3c2ccccc2NC(=O)Nc2nc3ccc(Cl)cc3s2)cc1C(F)(F)F [Example 266, 1-(6-Chlorobenzo[d]thiazol-2-yl)-3-(2-(5-fluoro-7-hydroxy-4-(1-isopropyl-5-(trifluoromethyl)-1H-pyrazol-3-yl)-3,3-dimethylindolin-1-yl)phenyl)urea] |  | 0.13 | 41.1 |  |
| CC(C)n1nc(C(F)(F)F)cc1-c1c(F)cc(O)c2c1C(C)(C)CN2c1ccccc1NC(=O)Nc1nc2ccc(F)cc2s1 [Example 267, 1-(2-(5-Fluoro-7-hydroxy-4-(1-isopropyl-3-(trifluoromethyl)-1H-pyrazol-5-yl)-3,3-dimethylindolin-1-yl)phenyl)-3-(6-fluorobenzo[d]thiazol-2-yl)urea] |  | 0.51 | 16.4 |  |
| CC(C)n1nc(C(F)(F)F)cc1-c1c(F)cc(O)c2c1C(C)(C)CN2c1ccccc1NC(=O)Nc1nc2ccc(Cl)cc2s1 [Example 268, 1-(6-Chlorobenzo[d]thiazol-2-yl)-3-(2-(5-fluoro-7-hydroxy-4-(1-isopropyl-3-(trifluoromethyl)-1H-pyrazol-5-yl)-3,3-dimethylindolin-1-yl)phenyl)urea] |  | 0.45 | 18.1 |  |
| CC1(C)CN(c2ccccc2NC(=O)Nc2csc(Cl)n2)c2c(O)cc(F)c(-c3cc(C(F)(F)F)no3)c21 [Example 269, 1-(2-Chlorothiazol-4-yl)-3-(2-(5-fluoro-7-hydroxy-3,3-dimethyl 4-(3-(trifluoromethyl)isoxazol-5-yl)indolin-1-yl)phenyl)urea] |  | 0.39 | 1.2 |  |
| CC(C)(C)c1nc(-c2c(F)cc(O)c3c2C(C)(C)CN3c2ccccc2NC(=O)Nc2nc3ccc(Cl)cc3s2)co1 [Example 270, 1-(2-(4-(2-(tert-Butyl)oxazol-4-yl)-5-fluoro-7-hydroxy-3,3-dimethylindolin-1-yl)phenyl)-3-(6-chlorobenzo[d]thiazol-2-yl)urea] |  | 0.43 | 17.3 |  |
| CC(C)n1nc(-c2c(F)cc(O)c3c2C(C)(C)CN3c2ccccc2NC(=O)Nc2ccc(OC(F)(F)F)cc2)cc1C(F)(F)F [Example 271, 1-(2-(5-Fluoro-7-hydroxy-4-(1-isopropyl-5-(trifluoromethyl)-1H-pyrazol-3-yl)-3,3-dimethylindolin-1-yl)phenyl)-3-(4-(trifluoromethoxy)phenyl)urea] |  | 0.07 | 12.4 |  |
| CC(C)n1nc(-c2c(F)cc(O)c3c2C(C)(C)CN3c2ccccc2NC(=O)Nc2csc(C(F)(F)F)n2)cc1C(F)(F)F [Example 272, 1-(2-(5-Fluoro-7-hydroxy-4-(1-isopropyl-5-(trifluoromethyl)-1H-pyrazol-3-yl)-3,3-dimethylindolin-1-yl)phenyl)-3-(2-(trifluoromethyl)thiazol-4-yl)urea] |  | 0.18 | 16.7 |  |
| CC(C)n1nc(-c2c(F)cc(O)c3c2C(C)(C)CN3c2ccccc2NC(=O)Nc2csc(Cl)n2)cc1C(F)(F)F [Example 273, 1-(2-Chlorothiazol-4-yl)-3-(2-(5-fluoro-7-hydroxy-4-(1-isopropyl-5-(trifluoromethyl)-1H-pyrazol-3-yl)-3,3-dimethylindolin-1-yl)phenyl)urea] |  | 0.05 | 9.4 |  |
| Cc1nc(-c2c(F)cc(O)c3c2C(C)(C)CN3c2ccccc2NC(=O)Nc2ccc(OC(F)(F)F)cc2)co1 [Example 274, 1-(2-(5-Fluoro-7-hydroxy-3,3-dimethyl-4-(2-methyloxazol-4-yl)indolin-1-yl)phenyl)-3-(4-(trifluoromethoxy)phenyl)urea] |  | 3.39 | 7.4 |  |
| CC1(C)CN(c2ccccc2NC(=O)Nc2ccc(OC(F)(F)F)cc2)c2c(O)cc(F)c(-c3noc(C(F)(F)F)n3)c21 [Example 276, 1-(2-(5-Fluoro-7-hydroxy-3,3-dimethyl-4-(5-(trifluoromethyl)-1,2,4-oxadiazol-3-yl)indolin-1-yl)phenyl)-3-(4-(trifluoromethoxy)phenyl)urea] |  | 0.64 | 48.7 |  |
| CC1(C)CN(c2ccccc2NC(=O)Nc2nc3ccc(F)cc3s2)c2c(O)cc(F)c(-c3noc(C(F)(F)F)n3)c21 [Example 277, 1-(2-(5-Fluoro-7-hydroxy-3,3-dimethyl-4-(5-(trifluoromethyl)-1,2,4-oxadiazol-3-yl)indolin-1-yl)phenyl)-3-(6-fluorobenzo[d]thiazol-2-yl)urea] |  | 0.26 | 54.9 |  |
| CC(C)(C)c1nc(-c2c(F)cc(O)c3c2C(C)(C)CN3c2ccccc2NC(=O)Nc2ccc(OC(F)(F)F)cc2)no1 [Example 278, 1-(2-(4-(5-(tert-Butyl)-1,2,4-oxadiazol-3-yl)-5-fluoro-7-hydroxy-3,3-dimethylindolin-1-yl)phenyl)-3-(4-(trifluoromethoxy)phenyl)urea] |  | 0.21 |  | 8.1 |
